Tests used:
[1] = target: HCV NS5B RdRp genotype 1b (Hepatitis C virus genotype 1b (isolate Con1) (HCV), UniProt Q9WMX2); test: HCV NS5B RdRp enzyme assay; assay type: biochemical
Procedure: HCV NS5B RdRp Cloning, Expression, and Purification. The cDNA encoding the NS5B protein of HCV, genotype 1b, was cloned into the pET21a expression vector. The protein was expressed with an 18 amino acid C-terminal truncation to enhance the solubility. The E. coli competent cell line BL21(DE3) was used for expression of the protein. Cultures were grown at 37° C. for ˜4 hours until the cultures reached an optical density of 2.0 at 600 nm. The cultures were cooled to 20° C. and induced with 1 mM IPTG. Fresh ampicillin was added to a final concentration of 50 μg/mL and the cells were grown overnight at 20° C.
Cell pellets (3 L) were lysed for purification to yield 15-24 mgs of purified NS5B. The lysis buffer consisted of 20 mM Tris-HCl, pH 7.4, 500 mM NaCl, 0.5% triton X-100, 1 mM DTT, 1 mM EDTA, 20% glycerol, 0.5 mg/ml lysozyme, 10 mM MgCl2, 15 ug/ml deoxyribonuclease I, and Complete TM protease inhibitor tablets (Roche). After addition of the lysis buffer, frozen cell pellets were resuspended using a tissue homogenizer. To reduce the viscosity of the sample, aliquots of the lysate were sonicated on ice using a microtip attached to a Branson sonicator. The sonicated lysate was centrifuged at 100,000×g for 30 minutes at 4° C. and filtered through a 0.2 μm filter unit (Corning).
The protein was purified using two sequential chromatography steps: Heparin sepharose CL-6B and polyU sepharose 4B. The chromatography buffers were identical to the lysis buffer but contained no lysozyme, deoxyribonuclease I, MgCl2 or protease inhibitor and the NaCl concentration of the buffer was adjusted according to the requirements for charging the protein onto the column. Each column was eluted with a NaCl gradient which varied in length from 5-50 column volumes depending on the column type. After the final chromatography step, the resulting purity of the enzyme is >90% based on SDS-PAGE analysis. The enzyme was aliquoted and stored at −80° C.
Standard HCV NS5B RdRp Enzyme Assay. HCV RdRp genotype 1b assays were run in a final volume of 60 μl in 96 well plates (Costar 3912) . The assay buffer is composed of 20 mM Hepes, pH 7.5, 2.5 mM KCl, 2.5 mM MgCl2, 1 mM DTT, 1.6 U RNAse inhibitor (Promega N2515), 0.1 mg/ml BSA (Promega R3961), and 2% glycerol. All compounds were serially diluted (3-fold) in DMSO and diluted further in water such that the final concentration of DMSO in the assay was 2%. HCV RdRp genotype 1b enzyme was used at a final concentration of 28 nM. A polyA template was used at 6 nM, and a biotinylated oligo-dT12 primer was used at 180 nM final concentration. Template was obtained commercially (Amersham 27-4110). Biotinylated primer was prepared by Sigma Genosys. ^3H-UTP was used at 0.6 μCi (0.29 μM total UTP). Reactions were initiated by the addition of enzyme, incubated at 30° C. for 60 min, and stopped by adding 25 μL of 50 mM EDTA containing SPA beads (4 μg/μL, Amersham RPNQ 0007). Plates were read on a Packard Top Count NXT after >1 hr incubation at room temperature.
Modified HCV NS5B RdRp Enzyme Assay. An on-bead solid phase homogeneous assay was also used to assess NS5B inhibitors (WangY-K, Rigat K, Roberts S, and Gao M (2006) Anal Biochem, 359: 106-111). The assay is a modification of the standard assay described above and was used in a 96-well or a 384-well format. […]

[2] = tested on: genotype 1b HCV replicon in Huh-7 cells; test: HCV replicon luciferase assay, genotype 1b; assay type: cell-based; settings: Hepatitis C virus, 1b genotype replicon
Procedure: (§1) Cell Lines. The cell lines used to evaluate compounds consist of a human hepatocyte derived cell line (Huh-7) that constitutively expresses a genotype 1a or 1b HCV replicon containing a Renilla luciferase reporter gene. These cells were maintained in Dulbecco's modified Eagle medium (DMEM) containing 10% FBS, 100 U/mL penicillin/streptomycin and 1.0 mg/mL G418.
(§2) HCV Replicon Luciferase Assay. To evaluate compound efficacy, HCV replicon cells were seeded in 96-well plates in DMEM containing 10% FBS at a cell density of 10^4/well. Following incubation at 37° C. overnight, compounds serially diluted in DMSO were added to the cell plates. Alternatively, titrated compounds were transferred to sterile 384-well tissue-culture treated plates and the plates seeded with 50 μL of cells at a density of 2.4×10^3 cells/well in DMEM containing 4% FCS (final DMSO concentration at 0.5%). After 3 days incubation at 37° C., cells were analyzed for Renilla Luciferase activity using the EnduRen substrate (Promega cat #E6485) according to the manufacturer's directions. Briefly, the EnduRen substrate was diluted in DMEM and then added to the plates to a final concentration of 7.5 μM. The plates were incubated for at least 1 h at 37° C. then read on a TopCount NXT Microplate Scintillation and Luminescence Counter (Packard) or Viewlux Imager (PerkinElmer) using a luminescence program. The 50% effective concentration (EC50) was calculated using the exponential form of the median effect equation where EC50=100−[(δFinh/δFcon)×100].

[3] = tested on: genotype 1a HCV replicon in Huh-7 cells; test: HCV replicon luciferase assay, genotype 1a; assay type: cell-based; settings: Hepatitis C virus, 1a genotype used for replicon data
Procedure: as §1
as §2, with “The 50% effective concentration (EC50) was calculated using the exponential form of the median effect equation where EC50=100−[(δFinh/δFcon)×100].” left out

HCV = settings: cited from earlier work

HCV NS5B RdRp genotype 1b, sequence (Q9WMX2 2420-2992): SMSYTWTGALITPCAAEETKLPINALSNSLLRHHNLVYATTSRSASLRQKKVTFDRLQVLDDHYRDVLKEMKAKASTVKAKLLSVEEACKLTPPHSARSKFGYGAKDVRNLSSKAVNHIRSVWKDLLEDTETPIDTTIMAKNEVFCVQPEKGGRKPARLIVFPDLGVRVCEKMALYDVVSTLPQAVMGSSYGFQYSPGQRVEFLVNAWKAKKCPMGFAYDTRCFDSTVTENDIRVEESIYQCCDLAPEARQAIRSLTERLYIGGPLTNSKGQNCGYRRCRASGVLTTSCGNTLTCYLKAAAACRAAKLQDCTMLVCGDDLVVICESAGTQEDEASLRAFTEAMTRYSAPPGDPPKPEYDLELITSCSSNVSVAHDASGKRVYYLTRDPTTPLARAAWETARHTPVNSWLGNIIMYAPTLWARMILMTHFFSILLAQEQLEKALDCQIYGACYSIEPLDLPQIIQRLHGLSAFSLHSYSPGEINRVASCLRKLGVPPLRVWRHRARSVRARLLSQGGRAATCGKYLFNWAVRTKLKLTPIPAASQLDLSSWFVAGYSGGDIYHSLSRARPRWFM

SMILES	IC50 [1] [nM]	EC50 [2] [nM]	EC50 [3] [nM]	hepatic toxicity (HCV; extended dosing of the combination regimens with interferon and ribavirin)	HCV RNA levels in patients (HCV; patients, single agent)
CNC(=O)c1c(-c2ccc(F)cc2)oc2ccc(-c3cc(C(=O)NC4(c5ccccc5)COC4)ccc3C)c(F)c12	57	4			
CNC(=O)c1c(-c2ccc(F)cc2)oc2ccc(-c3cc(C(=O)NC4(c5ccccn5)COC4)c(OC)cc3C)c(F)c12	17	8			
CNC(=O)c1c(-c2ccc(F)cc2)oc2ccc(-c3cc(C(=O)NC4(c5ncccn5)COC4)c(OC)cc3C)c(F)c12 [4-fluoro-2-(4-fluorophenyl)-5-(4-methoxy-2-methyl-5-(3-(pyrimidin-2-yl)oxetan-3-ylcarbamoyl)phenyl)-N-methylbenzofuran-3-carboxamide]	22	12			
CNC(=O)c1c(-c2ccc(F)cc2)oc2ccc(-c3cc(C(=O)NC4(c5ccccn5)COC4)ccc3C)c(F)c12 [4-fluoro-2-(4-fluorophenyl)-N-methyl-5-(2-methyl-5-(3-(pyridin-2-yl)oxetan-3-ylcarbamoyl)phenyl)benzofuran-3-carboxamide]	24		24		
CNC(=O)c1c(-c2ccc(F)cc2)oc2ccc(-c3cc(C(=O)NC4(c5ncccn5)COC4)ccc3C)c(F)c12 [4-fluoro-2-(4-fluorophenyl)-N-methyl-5-(2-methyl-5-(3-(pyrimidin-2-yl)oxetan-3-ylcarbamoyl)phenyl)benzofuran-3-carboxamide]	10	15			
CNC(=O)c1c(-c2ccc(F)cc2)oc2ccc(-c3cc(C(=O)NC4(c5ccccn5)COC4)cc(F)c3C)c(F)c12 [4-fluoro-5-(3-fluoro-2-methyl-5-(3-(pyridin-2-yl)oxetan-3-ylcarbamoyl)phenyl)-2-(4-fluorophenyl)-N-methylbenzofuran-3-carboxamide]	16	6			
CNC(=O)c1c(-c2ccc(F)cc2)oc2ccc(-c3cc(C(=O)NC4(c5ncccn5)COC4)cc(F)c3C)c(F)c12 [4-fluoro-5-(3-fluoro-2-methyl-5-(3-(pyrimidin-2-yl)oxetan-3-ylcarbamoyl)phenyl)-2-(4-fluorophenyl)-N-methylbenzofuran-3-carboxamide]	6	12			
CNC(=O)c1c(-c2ccc(F)cc2)oc2cc(N(CCO)S(C)(=O)=O)c(C3CC3)cc12 [HCV-796]				hepatic toxicity observed	showed an ability to reduce HCV RNA levels in patients

From patent publication US8507683B2, “Compounds for the treatment of hepatitis C” (Bristol-Myers Squibb Company, priority 2010, dated 2013)
